Several values for one entry are separate records, joined by “and”; a condition that tells them apart may be missing. Identical values can stand only once. Like-named read-outs stand apart in the source and are kept apart here.
Assays:
primary AML specimens = test: Discovery screen: 6-day single-dose (1 μM) viability, CellTiterGlo; assay type: cell-based, human; conditions: 6 days
Text: As recently described, our group conducted a high-throughput screening (HTS) assay assessing the response of 56 primary AML specimens to a library of 10,000 compounds (Moison et al, [2024]). This diverse small molecule library encompassed compounds with a wide range of structural diversity (Bristol-Myers Squibb), including clinical-grade compounds. Primary AML specimens representing the biological diversity of the disease, along with normal hematopoietic cells (CD34^+ cord blood cells), were exposed to a 6-day single-dose compound treatment (1 μM) and viability was assessed using the CellTiterGlow luminescent assay (Appendix Fig. S1A–C). A profile of inhibition—or fingerprint—was generated for each small molecule across the 56 primary AML specimens tested. […] Among these candidates, 12 were validated in cell lines and primary specimens and selected based on their chemotypes. […] Of note, highly sensitive AML specimens spanned various AML subgroups, underscoring the broad activity of S656 across genetically diverse AMLs (Fig. 1D).
Freshly thawed primary AML specimens were used for chemical screens. […] Cell viability was evaluated after 6 days in culture using the CellTiterGlo assay according to the manufacturer’s instruction. Percentage of inhibition for dose response curves was calculated as 100 – (100 × (mean luminescence [compound]/mean luminescence [DMSO])). […]

OCI-AML5 cells proteome = test: Whole-proteome mass spectrometry analysis; assay type: cell-based, H. sapiens; conditions: OCI-AML5, 5 hours, 8 μM S656
Method: Whole proteome was performed as previously described (Moison et al, [2024]). We treated 10 million OCI-AML5 cells in triplicate with DMSO or 8 μM S656 for 5 h. Collected cells were washed in PBS and cell pellets lysed in Triton X-100 buffer (10 mM PIPES pH 7.4, 0.5% Triton X-100, 300 mM Sucrose, 100 mM NaCl, 3 mM MgCl2, 0.5 mM EDTA + protease inhibitors). Following MS analysis, the data were processed using PEAKS X Pro (Bioinformatics Solutions, Waterloo, ON) and a Uniprot human database (20366 entries) with trypsin as the enzyme. Differential Enrichment analysis of Proteomics data (DEP) package (Zhang et al, [2018]) in R was used to analyze the data (excluding proteins identified based on a single peptide), including data filtering, normalization, imputation of missing values and statistical testing of differentially expressed proteins.

[1] = tested on: OCI-AML5 Cas9 cells (sgDDB1, sgAAVS1); test: Dose response in inducible OCI-AML5 Cas9 cells expressing sgRNAs targeting DDB1 or AAVS1; assay type: cell-based, H. sapiens; conditions: 4 days, read-out: S656 IC50
Method: Dose-response assays in primary AML specimens were performed as in chemical screen (see above) with the exception that compounds were tested in serial dilution (8 dilutions, 1:4, 10 μM down to 0.5 nM). Dose-response assays in OCI-AML5 cell line were conducted similarly with the following modifications: 300 cells per well were seeded in 50 μL of cell line media and cell viability was evaluated after 4 days in culture.
Clonal OCI-AML5 cells expressing an inducible Cas9 (Addgene plasmid #50661 (Wang et al, [2014])) were generated and then infected with lentiviruses for constitutive expression of sgRNAs targeting AAVS1 control region (Addgene plasmid #50662 (Wang et al, [2014])) or DDB1 #1 ([…]); #2 ([…]). Cas9 expression is induced by doxycycline (2 μg/mL) and experiments performed subsequently.

In the case of `CN(C)c1ccc(CC(=O)Nc2ncc(SCc3cccnc3)s2)cc1` [S656], the inhibition at 1 µM (primary AML specimens; Homo sapiens, 144 h, 1 μM, in 10 out of 56 primary AML specimens, read-out: growth inhibition) is reported as greater than 70%, the “% inhibition S656 at 1uM” value (primary AML specimens; discovery screen, one primary AML specimen per row (Patient ID in c0)) is reported as 0.00% and the “log2FC CCNK” value (OCI-AML5 cells proteome) is reported as -7.264. The “log2FC GNL1” value (OCI-AML5 cells proteome) was -6.619, the “log2FC PM34” value (OCI-AML5 cells proteome) was -4.278 and the “log2FC PMYT1” value (OCI-AML5 cells proteome) was -4.723. For the same compound, the “log2FC RIOK2” value (OCI-AML5 cells proteome) was -4.751, the IC50 ([1]; Homo sapiens, OCI-AML-5, 96 h, sgAAVS + DOX) was 0.923 µM and the IC50 ([1]; Homo sapiens, OCI-AML-5, 96 h, sgAAVS - DOX) was 0.896 µM. For the same compound, the IC50 ([1]; Homo sapiens, OCI-AML-5, 96 h, sgDDB1 #1 + DOX) was 2.17 µM, the IC50 ([1]; Homo sapiens, OCI-AML-5, 96 h, sgDDB1 #1 - DOX) was 1.19 µM and the IC50 ([1]; Homo sapiens, OCI-AML-5, 96 h, sgDDB1 #2 + DOX) was 2.44 µM. The IC50 ([1]; Homo sapiens, OCI-AML-5, 96 h, sgDDB1 #2 - DOX) was 0.936 µM, the IC50 ([1]; sgAAVS + DOX) was 1.13 µM and 0.96 µM and the IC50 ([1]; sgAAVS - DOX) was 0.945 µM and 0.735 µM. For the same compound, the IC50 ([1]; sgDDB1 #1 + DOX) was 2.09 µM and 1.91 µM, the IC50 ([1]; sgDDB1 #1 - DOX) was 1.02 µM and 0.964 µM and the IC50 ([1]; sgDDB1 #2 + DOX) was 2.38 µM and 1.63 µM. The IC50 ([1]; sgDDB1 #2 - DOX) was 1.07 µM and 0.975 µM.

Reference: paper PMC12152147, “DDB1 engagement defines the selectivity of S656 analogs for cyclin K degradation over CDK inhibition” (EMBO Reports, 2025)
